Tests used:
[1] = test system: RBL-2H3; assay: Inhibition of anti-DNP-IgE-induced degranulation in rat RBL2H3 cells assessed as betahexosaminidase released at 10 uM after 20 mins by microplate reader assay; assay type: functional; details: RBL-2H3, 20 min
[2] = test system: RBL-2H3; assay: Inhibition of anti-DNP-IgE-induced degranulation in rat RBL2H3 cells assessed as betahexosaminidase released at 100 uM after 20 mins by microplate reader assay; assay type: functional; details: RBL-2H3, 20 min

SMILES | inhibition at 10 µM [1] [%] | inhibition at 100 µM [2] [%]
C[C@@H](O)CCc1ccc(O)cc1 | 29.7 | 36.5
C[C@H](CCc1ccc(O)cc1)O[C@@H]1O[C@H](CO)[C@@H](O)[C@H](O)[C@H]1O | 25 | 42.3
C[C@H](CCc1ccc(O)cc1)O[C@H]1O[C@H](COC(=O)C[C@@](C)(O)CC(=O)O)[C@@H](O)[C@H](O)[C@H]1O | 26.6 | 20
OC[C@]1(O)CO[C@@H](OC[C@H]2O[C@@H](O[C@H](CCCCc3ccc(O)cc3)CCc3ccc(O)cc3)[C@H](O[C@H]3OC[C@@](O)(CO)[C@@H]3O)[C@@H](O)[C@@H]2O)[C@H]1O | 22.1 | 23.2
O=C(CCc1ccc(O)cc1)C[C@@H](CCc1ccc(O)cc1)O[C@@H]1O[C@H](CO[C@@H]2OC[C@](O)(CO)[C@H]2O)[C@@H](O)[C@H](O)[C@H]1O[C@H]1OC[C@@](O)(CO)[C@@H]1O | 11.8 | 23.4
Oc1ccc(CCCC[C@@H](O)CCc2ccc(O)cc2)cc1 | 19.2 | 31.5
OC[C@]1(O)CO[C@@H](OC[C@H]2O[C@@H](O[C@H](CCCCc3ccc(O)cc3)CCc3ccc(O)cc3)[C@H](O)[C@@H](O)[C@@H]2O)[C@H]1O [ACEROSIDEVIII] | 11.7 | 22.4
C[C@H](CCc1ccc(O)cc1)O[C@@H]1O[C@H](CO[C@@H]2OC[C@@](O)(CO)[C@@H]2O)[C@@H](O)[C@H](O)[C@H]1O [APIOSYLRHODODENDRIN] | 25.4 | 26.7
O=c1c(O)c(-c2ccc(O)c(O)c2)oc2cc(O)cc(O)c12 [QUERCETIN] | 32.9 | 

— ChEMBL document CHEMBL1157920, “Inhibition of antigen-induced degranulation by aryl compounds isolated from the bark of Betula platyphylla in RBL-2H3 cells” (2010)
